According to ChEMBL document CHEMBL3885881, “DrugMatrix”:
Several values for one entry are separate records, joined by “and”; a condition that tells them apart may be missing. Identical values can stand only once.

Organism: Rattus norvegicus
Assay: DrugMatrix - Regimen: Daily Repeat
Format: toxicity, organism-based, Sprague-Dawley
Design: regimen Daily Repeat, gender Male, age 6-8 weeks
Settings: in vivo, sc, route mini-PUMP - SUBCUTANEOUS, vehicle 100 % SALINE; for ABSOLUTE MONOCYTE / ABSOLUTE SEGMENTED NEUTROPHIL / BASOPHIL / EOSINOPHIL / ERYTHROCYTE COUNT / HEMATOCRIT / HEMOGLOBIN / LEUKOCYTE COUNT / MEAN CORPUSCULAR HEMOGLOBIN / MEAN CORPUSCULAR HEMOGLOBIN CONCENTRATION / MEAN CORPUSCULAR VOLUME / MONOCYTE / NEUTROPHIL / NUCLEATED RED BLOOD CELLS / PLATELET COUNT / ABSOLUTE BASOPHIL / ABSOLUTE EOSINOPHIL / ABSOLUTE LYMPHOCYTE: tissue Blood; for ALBUMIN / ALKALINE PHOSPHATASE / ASPARTATE AMINOTRANSFERASE / BLOOD UREA NITROGEN / CARBON DIOXIDE / CHOLESTEROL / CREATINE PHOSPHOKINASE / CREATININE / GLUCOSE / LACTATE DEHYDROGENASE / PHOSPHORUS / POTASSIUM / SODIUM / TOTAL BILIRUBIN / URIC ACID: tissue Plasma
[1] = 0 mg/kg, 72 h, dose level Control, time 3 day
[2] = 0 mg/kg, 120 h, dose level Control, time 5 day
[3] = 0 mg/kg, […], dose level Control, time 14 day
[4] = 0.5 mg/kg, 72 h, dose level High, time 3 day
[5] = 0.5 mg/kg, 120 h, dose level High, time 5 day
[6] = 0.5 mg/kg, […], dose level High, time 14 day

CC[C@H](C)[C@H](NC(=O)[C@H](Cc1ccc(O)cc1)NC(=O)[C@@H](NC(=O)[C@H](CCCNC(=N)N)NC(=O)[C@@H](N)CC(=O)O)C(C)C)C(=O)N[C@@H](Cc1cnc[nH]1)C(=O)N1CCC[C@H]1C(=O)N[C@@H](Cc1ccccc1)C(=O)O [ANGIOTENSIN II]
ABSOLUTE MONOCYTE [1]: 230 cells/µL and 354 CELLS/uL | ABSOLUTE SEGMENTED NEUTROPHIL [1]: 1658.33 CELLS/uL | BASOPHIL [1]: 0.3% and 0% | EOSINOPHIL [1]: 0.43% and 0.5% | ERYTHROCYTE COUNT [1]: 6.91 x10E6/uL and 6.27 x10E6/uL | HEMATOCRIT [1]: 45.43% and 36.95% | HEMOGLOBIN [1]: 14.37 G/DL and 13.4 G/DL | LEUKOCYTE COUNT [1]: 12.09 x10E3/uL and 16.38 x10E3/uL | MEAN CORPUSCULAR HEMOGLOBIN [1]: 20.8 pg and 21.42 pg | MEAN CORPUSCULAR HEMOGLOBIN CONCENTRATION [1]: 31.67 G/DL and 36.27 G/DL | MEAN CORPUSCULAR VOLUME [1]: 65.83 fL and 59.03 fL | MONOCYTE [1]: 1.83% and 2% | NEUTROPHIL [1]: 15.07% and 10.33% | NUCLEATED RED BLOOD CELLS [1]: 0 /100WBC | PLATELET COUNT [1]: 1299.67 x10E3/uL and 904.67 x10E3/uL | ALBUMIN [1]: 3.83 G/DL and 3.82 G/DL | ALKALINE PHOSPHATASE [1]: 333.67 u/L and 282.33 u/L | ASPARTATE AMINOTRANSFERASE [1]: 68 u/L and 86.83 u/L | BLOOD UREA NITROGEN [1]: 19.33 mg/dL and 20.17 mg/dL | CARBON DIOXIDE [1]: 43 mmol/L and 34.67 mmol/L | CHOLESTEROL [1]: 84.33 mg/dL and 71.5 mg/dL | CREATINE PHOSPHOKINASE [1]: 334.33 u/L | CREATININE [1]: 0.53 mg/dL and 0.2 mg/dL | GLUCOSE [1]: 156.67 mg/dL and 136.83 mg/dL | LACTATE DEHYDROGENASE [1]: 159 u/L | PHOSPHORUS [1]: 9.8 mg/dL and 10.12 mg/dL | POTASSIUM [1]: 5.93 MEQ/L and 5.92 MEQ/L | SODIUM [1]: 146.33 MEQ/L and 147.8 MEQ/L | TOTAL BILIRUBIN [1]: 0.37 mg/dL and 0.2 mg/dL | URIC ACID [1]: 0.73 mg/dL and 1.4 mg/dL | ABSOLUTE SEGMENTED NEUTROPHIL [2]: 3216.67 CELLS/uL | BASOPHIL [2]: 0.2% and 0% | EOSINOPHIL [2]: 0.33% and 0% | ERYTHROCYTE COUNT [2]: 6.81 x10E6/uL and 6.11 x10E6/uL | HEMATOCRIT [2]: 44.33% and 36.22% | HEMOGLOBIN [2]: 13.77 G/DL and 13.18 G/DL | LEUKOCYTE COUNT [2]: 11.2 x10E3/uL and 17.8 x10E3/uL | MEAN CORPUSCULAR HEMOGLOBIN [2]: 20.23 pg and 21.62 pg | MEAN CORPUSCULAR HEMOGLOBIN CONCENTRATION [2]: 31.03 G/DL and 36.42 G/DL | MEAN CORPUSCULAR VOLUME [2]: 65.1 fL and 59.37 fL | MONOCYTE [2]: 2.1% and 1.83% | NEUTROPHIL [2]: 16.43% and 17.67% | NUCLEATED RED BLOOD CELLS [2]: 0 /100WBC | PLATELET COUNT [2]: 1573.33 x10E3/uL and 1311 x10E3/uL | ALBUMIN [2]: 3.87 G/DL and 3.83 G/DL | ALKALINE PHOSPHATASE [2]: 303.67 u/L and 260.33 u/L | ASPARTATE AMINOTRANSFERASE [2]: 72.67 u/L and 76.17 u/L | BLOOD UREA NITROGEN [2]: 17.33 mg/dL and 14.67 mg/dL | CARBON DIOXIDE [2]: 41.33 mmol/L and 31.33 mmol/L | CHOLESTEROL [2]: 74.33 mg/dL and 75 mg/dL | CREATINE PHOSPHOKINASE [2]: 286.67 u/L | CREATININE [2]: 0.47 mg/dL and 0.16 mg/dL | GLUCOSE [2]: 152.33 mg/dL and 152.67 mg/dL | LACTATE DEHYDROGENASE [2]: 147.33 u/L | PHOSPHORUS [2]: 10 mg/dL and 10.97 mg/dL | POTASSIUM [2]: 6.4 MEQ/L and 6 MEQ/L | SODIUM [2]: 146 MEQ/L and 145.52 MEQ/L | TOTAL BILIRUBIN [2]: 0.43 mg/dL and 0.17 mg/dL | URIC ACID [2]: 0.83 mg/dL and 1.27 mg/dL | ABSOLUTE SEGMENTED NEUTROPHIL [3]: 2414 CELLS/uL | NUCLEATED RED BLOOD CELLS [3]: 0.17 /100WBC | CREATINE PHOSPHOKINASE [3]: 262 u/L | ABSOLUTE BASOPHIL [4]: 56.7 cells/µL | ABSOLUTE EOSINOPHIL [4]: 70 cells/µL | ABSOLUTE LYMPHOCYTE [4]: 10900 cells/µL | ABSOLUTE MONOCYTE [4]: 510 cells/µL | BASOPHIL [4]: 0.4% | EOSINOPHIL [4]: 0.5% | ERYTHROCYTE COUNT [4]: 6.47 x10E6/uL | HEMATOCRIT [4]: 44.43% | HEMOGLOBIN [4]: 13.53 G/DL | LEUKOCYTE COUNT [4]: 14.39 x10E3/uL | MEAN CORPUSCULAR HEMOGLOBIN [4]: 20.97 pg | MEAN CORPUSCULAR HEMOGLOBIN CONCENTRATION [4]: 30.53 G/DL | MEAN CORPUSCULAR VOLUME [4]: 68.7 fL | MONOCYTE [4]: 3.57% | NEUTROPHIL [4]: 18.63% | PLATELET COUNT [4]: 1360 x10E3/uL | ALBUMIN [4]: 3.77 G/DL | ALKALINE PHOSPHATASE [4]: 339 u/L | ASPARTATE AMINOTRANSFERASE [4]: 71.67 u/L | BLOOD UREA NITROGEN [4]: 19 mg/dL | CARBON DIOXIDE [4]: 41.33 mmol/L | CHOLESTEROL [4]: 91.67 mg/dL | CREATINE PHOSPHOKINASE [4]: 392.67 u/L | CREATININE [4]: 0.5 mg/dL | GLUCOSE [4]: 169.67 mg/dL | PHOSPHORUS [4]: 10.23 mg/dL | POTASSIUM [4]: 6.3 MEQ/L | SODIUM [4]: 150.67 MEQ/L | TOTAL BILIRUBIN [4]: 0.27 mg/dL | URIC ACID [4]: 0.93 mg/dL | ABSOLUTE BASOPHIL [5]: 43.3 cells/µL | ABSOLUTE EOSINOPHIL [5]: 36.7 cells/µL | ABSOLUTE LYMPHOCYTE [5]: 9260 cells/µL | ABSOLUTE MONOCYTE [5]: 340 cells/µL | BASOPHIL [5]: 0.33% | EOSINOPHIL [5]: 0.3% | ERYTHROCYTE COUNT [5]: 6.6 x10E6/uL | HEMATOCRIT [5]: 45.03% | HEMOGLOBIN [5]: 13.57 G/DL | LEUKOCYTE COUNT [5]: 12.59 x10E3/uL | MEAN CORPUSCULAR HEMOGLOBIN [5]: 20.53 pg | MEAN CORPUSCULAR HEMOGLOBIN CONCENTRATION [5]: 30.1 G/DL | MEAN CORPUSCULAR VOLUME [5]: 68.23 fL | MONOCYTE [5]: 2.7% | NEUTROPHIL [5]: 22.57% | PLATELET COUNT [5]: 1662.33 x10E3/uL | ALBUMIN [5]: 3.8 G/DL | ALKALINE PHOSPHATASE [5]: 329 u/L | ASPARTATE AMINOTRANSFERASE [5]: 76.33 u/L | BLOOD UREA NITROGEN [5]: 17.67 mg/dL | CARBON DIOXIDE [5]: 41 mmol/L | CHOLESTEROL [5]: 86.33 mg/dL | CREATINE PHOSPHOKINASE [5]: 239.67 u/L | CREATININE [5]: 0.5 mg/dL | GLUCOSE [5]: 171.33 mg/dL | PHOSPHORUS [5]: 9.77 mg/dL | POTASSIUM [5]: 5.87 MEQ/L | SODIUM [5]: 152 MEQ/L | TOTAL BILIRUBIN [5]: 0.3 mg/dL | URIC ACID [5]: 1.33 mg/dL | ABSOLUTE BASOPHIL [6]: 40 cells/µL | ABSOLUTE EOSINOPHIL [6]: 62 cells/µL
